Experimental data from patent publication US20060110439A1, “Dermal delivery of n-methyl-glucamine and n-methyl-glucamine compounds” (Dynamis Therapeutics, Inc., priority 2004, published 2006).

Columns and labels:
[1] = test system: 3DG; conditions: in vivo; cited from earlier work
[2] = test system: 3DG-dependent crosslinking of collagen type I; assay: Inhibition of 3DG collagen crosslinking in vitro (CnBr digest, SDS-PAGE); format: biochemical; conditions: calf skin collagen type 1, 5 mM 3DG plus 10 mM arginine, 24 hr
Description: The direct inactivation of 3DG is a method of reducing 3DG levels. Calf skin collagen type 1 (1.3 mg) was incubated with no addition, with 5 mM 3DG, or with 5 mM 3DG plus 10 mM of arginine for 24 hr. Each sample was digested with cyanogen bromide (CnBr) to create peptide fragments that are visualized by sodium-dodecyl sulfate-polyacrylamide gel electrophoresis (SDS-PAGE) (FIG. 4). Lane 2 is collagen alone; lane 3 is collagen plus 5 mM 3DG; and lane 4 is collagen plus 5 mM 3DG plus 10 mM arginine. Lanes 5, 6, and 7 are the same, but with twice as much sample applied.
Crosslinking was assessed by visually determining the amount of high molecular weight protein remaining near the origin of the resolving gel, as compared to the amount that migrates into the gel matrix. The more crosslinking that exists, the more material there is near the origin of the gel. The lanes containing collagen with 3DG (#3, #6) have more material residing at the origin than those containing collagen alone (#2, #5).

SMILES | urinary or plasma 3DG [1] | 3DG crosslinking of collagen (high molecular weight protein near gel origin, visual) [2]
N[C@@H](CCCCNC[C@H](O)[C@@H](O)[C@H](O)[C@H](O)CO)C(=O)O [sorbitollysine] | reduced | –
N[C@@H](CCCCNC[C@@H](O)[C@@H](O)[C@H](O)[C@H](O)CO)C(=O)O [mannitollysine] | reduced | –
N[C@@H](CCCCNC[C@H](O)[C@@H](O)[C@@H](O)[C@H](O)CO)C(=O)O [galactitollysine] | reduced | –
N=C(N)NCCC[C@H](N)C(=O)O [arginine] | – | able to inactivate 3DG and prevent it from crosslinking collagen
CNC[C@H](O)[C@@H](O)[C@H](O)[C@H](O)CO [meglumine, N-methyl glucamine] | reduced | –
